Experimental data: PubChem BioAssay (NCI)
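Protocol summary: plate cells (96-well), add compound at 5 concentrations, incubate 48 h, interpolate endpoints linearly. The concentration for 50% growth inhibition is given as GI50. The concentration for full growth arrest is given as TGI.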

Tests used:
Assay in all cases: NCI-60 cell line screen, 48 h
786-0 renal = test system: 786-0 renal
A498 renal = test system: A498 renal
A549 NSCLC = test system: A549 NSCLC
ACHN renal = test system: ACHN renal
BT-549 breast = test system: BT-549 breast
CAKI-1 renal = test system: CAKI-1 renal
CCRF-CEM leukemia = test system: CCRF-CEM leukemia
COLO 205 colon = test system: COLO 205 colon
DU-145 prostate = test system: DU-145 prostate
EKVX NSCLC = test system: EKVX NSCLC
HCC-2998 colon = test system: HCC-2998 colon
HCT-116 colon = test system: HCT-116 colon
HCT-15 colon = test system: HCT-15 colon
HL-60(TB) leukemia = test system: HL-60(TB) leukemia
HOP-62 NSCLC = test system: HOP-62 NSCLC
HOP-92 NSCLC = test system: HOP-92 NSCLC
HS 578T breast = test system: HS 578T breast
HT29 colon = test system: HT29 colon
IGROV1 ovarian = test system: IGROV1 ovarian
K-562 leukemia = test system: K-562 leukemia
KM12 colon = test system: KM12 colon
LOX IMVI melanoma = test system: LOX IMVI melanoma
M14 melanoma = test system: M14 melanoma
MALME-3M melanoma = test system: MALME-3M melanoma
MCF7 breast = test system: MCF7 breast
MDA-MB-231 breast = test system: MDA-MB-231 breast
MDA-MB-435 = test system: MDA-MB-435
MOLT-4 leukemia = test system: MOLT-4 leukemia
NCI-H226 lung = test system: NCI-H226 lung
NCI-H23 lung = test system: NCI-H23 lung
NCI-H460 lung = test system: NCI-H460 lung
NCI-H522 lung = test system: NCI-H522 lung
NCI/ADR-RES ovarian = test system: NCI/ADR-RES ovarian
OVCAR-3 ovarian = test system: OVCAR-3 ovarian
OVCAR-4 ovarian = test system: OVCAR-4 ovarian
OVCAR-5 ovarian = test system: OVCAR-5 ovarian
OVCAR-8 ovarian = test system: OVCAR-8 ovarian
PC-3 prostate = test system: PC-3 prostate
RPMI-8226 leukemia = test system: RPMI-8226 leukemia
RXF 393 renal = test system: RXF 393 renal
SF-268 CNS = test system: SF-268 CNS
SF-295 CNS = test system: SF-295 CNS
SF-539 CNS = test system: SF-539 CNS
SK-MEL-2 melanoma = test system: SK-MEL-2 melanoma
SK-MEL-28 melanoma = test system: SK-MEL-28 melanoma
SK-MEL-5 melanoma = test system: SK-MEL-5 melanoma
SK-OV-3 ovarian = test system: SK-OV-3 ovarian
SN12C renal = test system: SN12C renal
SNB-19 CNS = test system: SNB-19 CNS
SNB-75 CNS = test system: SNB-75 CNS
SR leukemia = test system: SR leukemia
SW-620 colon = test system: SW-620 colon
T-47D breast = test system: T-47D breast
TK-10 renal = test system: TK-10 renal
U251 CNS = test system: U251 CNS
UACC-257 melanoma = test system: UACC-257 melanoma
UACC-62 melanoma = test system: UACC-62 melanoma
UO-31 renal = test system: UO-31 renal

## O=C1C(=O)c2ccccc2-c2ccccc21
786-0 renal
  GI50: 1830 nM
  TGI: 3350 nM
A498 renal
  GI50: 1800 nM
  TGI: 3320 nM
A549 NSCLC
  GI50: 2480 nM
  TGI: 6540 nM
ACHN renal
  GI50: 1440 nM
  TGI: 2840 nM
BT-549 breast
  GI50: 1660 nM
  TGI: 3070 nM
CAKI-1 renal
  GI50: 1750 nM
  TGI: 3340 nM
CCRF-CEM leukemia
  GI50: 1500 nM
  TGI: 4850 nM
COLO 205 colon
  GI50: 2020 nM
  TGI: 4280 nM
DU-145 prostate
  GI50: 1680 nM
  TGI: 3070 nM
EKVX NSCLC
  GI50: 1810 nM
  TGI: 3250 nM
HCC-2998 colon
  GI50: 1990 nM
  TGI: 3520 nM
HCT-116 colon
  GI50: 831 nM
  TGI: 2210 nM
HCT-15 colon
  GI50: 1050 nM
  TGI: 2920 nM
HL-60(TB) leukemia
  GI50: 1560 nM
  TGI: 4110 nM
HOP-62 NSCLC
  GI50: 1720 nM
  TGI: 5240 nM
HOP-92 NSCLC
  GI50: 1460 nM
  TGI: 2930 nM
HS 578T breast
  GI50: 3140 nM
  TGI: 9860 nM
HT29 colon
  GI50: 3400 nM
  TGI: > 100000 nM
IGROV1 ovarian
  GI50: 2070 nM
  TGI: 3750 nM
K-562 leukemia
  GI50: 1010 nM
  TGI: 4020 nM
KM12 colon
  GI50: 1860 nM
  TGI: 3400 nM
LOX IMVI melanoma
  GI50: 367 nM
  TGI: 1790 nM
M14 melanoma
  GI50: 1760 nM
  TGI: 3290 nM
MALME-3M melanoma
  GI50: 1790 nM
  TGI: 3310 nM
MCF7 breast
  GI50: 1670 nM
  TGI: 3800 nM
MDA-MB-231 breast
  GI50: 1420 nM
  TGI: 3190 nM
MDA-MB-435
  GI50: 198 nM
  TGI: 416 nM
MOLT-4 leukemia
  GI50: 1560 nM
  TGI: 4750 nM
NCI-H226 lung
  GI50: 1720 nM
  TGI: 3180 nM
NCI-H23 lung
  GI50: 1680 nM
  TGI: 3990 nM
NCI-H460 lung
  GI50: 1920 nM
  TGI: 3990 nM
NCI-H522 lung
  GI50: 1750 nM
  TGI: 4120 nM
NCI/ADR-RES ovarian
  GI50: 543 nM
  TGI: 2900 nM
OVCAR-3 ovarian
  GI50: 1720 nM
  TGI: 3200 nM
OVCAR-4 ovarian
  GI50: 1000 nM
  TGI: 2250 nM
OVCAR-5 ovarian
  GI50: 1750 nM
  TGI: 3520 nM
OVCAR-8 ovarian
  GI50: 662 nM
  TGI: 2150 nM
PC-3 prostate
  GI50: 1310 nM
  TGI: 2790 nM
RPMI-8226 leukemia
  GI50: 583 nM
  TGI: 2790 nM
RXF 393 renal
  GI50: 1720 nM
  TGI: 3120 nM
SF-268 CNS
  GI50: 1610 nM
  TGI: 3150 nM
SF-295 CNS
  GI50: 1760 nM
  TGI: 3230 nM
SF-539 CNS
  GI50: 1600 nM
  TGI: 2990 nM
SK-MEL-2 melanoma
  GI50: 2020 nM
  TGI: 4790 nM
SK-MEL-28 melanoma
  GI50: 1770 nM
  TGI: 3240 nM
SK-MEL-5 melanoma
  GI50: 1390 nM
  TGI: 2790 nM
SK-OV-3 ovarian
  GI50: 1730 nM
  TGI: 3250 nM
SN12C renal
  GI50: 1610 nM
  TGI: 3290 nM
SNB-19 CNS
  GI50: 1450 nM
  TGI: 2950 nM
SNB-75 CNS
  GI50: 1510 nM
  TGI: 2900 nM
SR leukemia
  GI50: 555 nM
  TGI: 7820 nM
SW-620 colon
  GI50: 2060 nM
  TGI: 4780 nM
T-47D breast
  GI50: 490 nM
  TGI: 2720 nM
TK-10 renal
  GI50: 1820 nM
  TGI: 3300 nM
U251 CNS
  GI50: 1670 nM
  TGI: 3530 nM
UACC-257 melanoma
  GI50: 1520 nM
  TGI: 3070 nM
UACC-62 melanoma
  GI50: 1520 nM
  TGI: 3030 nM
UO-31 renal
  GI50: 1440 nM
  TGI: 2820 nM
